From ChEMBL document CHEMBL1909046, “DrugMatrix in vitro pharmacology data”

Experiments:
Thromboxane-A synthase = molecular target: T1, Thromboxane-A synthase (Homo sapiens, UniProt P24557); test: biochemical; format: tissue-based, Platelet; conditions: platelet;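 further: enzyme inhibition assay with PGH2 supplied as substrate; in other assays of this panel Not Active means under 50% inhibition at 10 µM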
T1 sequence (P24557 whole entry): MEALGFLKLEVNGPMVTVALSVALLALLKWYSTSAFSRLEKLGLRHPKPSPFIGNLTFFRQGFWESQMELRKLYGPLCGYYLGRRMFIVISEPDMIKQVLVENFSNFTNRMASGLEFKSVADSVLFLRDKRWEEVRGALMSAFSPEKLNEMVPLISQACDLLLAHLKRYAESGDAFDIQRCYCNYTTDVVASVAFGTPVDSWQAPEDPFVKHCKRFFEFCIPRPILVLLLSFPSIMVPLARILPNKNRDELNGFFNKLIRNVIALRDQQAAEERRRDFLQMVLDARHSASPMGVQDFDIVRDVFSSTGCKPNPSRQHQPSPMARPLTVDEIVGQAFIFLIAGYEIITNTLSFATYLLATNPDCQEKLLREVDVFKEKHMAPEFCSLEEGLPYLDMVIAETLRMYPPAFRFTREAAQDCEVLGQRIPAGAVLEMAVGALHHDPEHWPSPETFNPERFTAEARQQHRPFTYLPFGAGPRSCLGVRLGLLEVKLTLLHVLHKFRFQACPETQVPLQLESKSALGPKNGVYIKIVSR

[1] = DRUGMATRIX: Calcium Channel Type L, Phenylalkylamine radioligand binding (ligand: [3H] (-)-Desmethoxyverapamil (D-888)); format: cell membranes, Rattus norvegicus, Wistar, Brain, Membrane; conditions: Not Active = under 50% inhibition at 10 µM
[2] = molecular target: Delta-type opioid receptor (Homo sapiens, UniProt P41143); format: cell membranes, HEK293, Membrane; conditions: hek293; further: in other assays of this panel Not Active means under 50% inhibition at 10 µM
Delta-type opioid receptor, sequence (P41143 whole entry): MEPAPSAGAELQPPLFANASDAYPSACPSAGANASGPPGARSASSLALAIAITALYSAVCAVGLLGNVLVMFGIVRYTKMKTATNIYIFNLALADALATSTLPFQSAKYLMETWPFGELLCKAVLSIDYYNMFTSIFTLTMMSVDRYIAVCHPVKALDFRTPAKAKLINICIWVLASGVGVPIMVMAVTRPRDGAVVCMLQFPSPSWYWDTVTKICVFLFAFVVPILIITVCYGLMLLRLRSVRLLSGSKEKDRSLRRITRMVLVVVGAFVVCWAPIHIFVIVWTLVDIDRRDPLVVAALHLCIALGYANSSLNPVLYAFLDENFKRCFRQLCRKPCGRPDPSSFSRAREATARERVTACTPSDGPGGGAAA

[3] = molecular target: Mitogen-activated protein kinase 1 (Homo sapiens, UniProt P28482); test: DRUGMATRIX: Protein Serine/Threonine Kinase, ERK2 enzyme inhibition (substrate: Myelin Basic Protein); set-up: species or system Escherichia coli; conditions: Not Active = under 50% inhibition at 10 µM
Mitogen-activated protein kinase 1, sequence (P28482 whole entry): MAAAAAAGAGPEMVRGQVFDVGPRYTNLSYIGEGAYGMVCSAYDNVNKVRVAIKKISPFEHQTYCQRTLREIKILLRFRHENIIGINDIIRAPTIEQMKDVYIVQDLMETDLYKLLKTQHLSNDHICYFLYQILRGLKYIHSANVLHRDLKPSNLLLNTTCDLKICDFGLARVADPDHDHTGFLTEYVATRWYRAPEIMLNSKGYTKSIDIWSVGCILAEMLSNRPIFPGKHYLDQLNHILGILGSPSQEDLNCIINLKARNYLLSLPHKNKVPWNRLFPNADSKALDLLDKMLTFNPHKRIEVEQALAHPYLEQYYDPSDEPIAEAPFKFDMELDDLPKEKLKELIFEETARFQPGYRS

[4] = molecular target: Mitogen-activated protein kinase 14 (Homo sapiens, UniProt Q16539); set-up: species or system Escherichia coli;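 further: inhibition of p38alpha enzyme activity in a biochemical kinase assay, with myelin basic protein serving as substrate; in other assays of this panel Not Active means under 50% inhibition at 10 µM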
Mitogen-activated protein kinase 14, sequence (Q16539 whole entry): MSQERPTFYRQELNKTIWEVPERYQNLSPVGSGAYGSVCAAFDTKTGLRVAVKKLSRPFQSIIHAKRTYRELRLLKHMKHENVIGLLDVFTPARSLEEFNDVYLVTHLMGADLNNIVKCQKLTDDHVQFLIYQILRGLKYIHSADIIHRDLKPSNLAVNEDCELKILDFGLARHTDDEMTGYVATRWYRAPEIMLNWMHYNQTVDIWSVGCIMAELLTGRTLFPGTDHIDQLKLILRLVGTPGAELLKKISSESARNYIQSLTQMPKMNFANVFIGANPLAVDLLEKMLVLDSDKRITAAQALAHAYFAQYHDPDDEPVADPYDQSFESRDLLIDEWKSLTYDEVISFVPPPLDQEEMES

[5] = molecular target: 5-hydroxytryptamine receptor 1B (Rattus norvegicus, UniProt P28564); format: cell membranes, Wistar, Cerebral cortex, Membrane; further: in other assays of this panel Not Active means under 50% inhibition at 10 µM
5-hydroxytryptamine receptor 1B, sequence (P28564 whole entry): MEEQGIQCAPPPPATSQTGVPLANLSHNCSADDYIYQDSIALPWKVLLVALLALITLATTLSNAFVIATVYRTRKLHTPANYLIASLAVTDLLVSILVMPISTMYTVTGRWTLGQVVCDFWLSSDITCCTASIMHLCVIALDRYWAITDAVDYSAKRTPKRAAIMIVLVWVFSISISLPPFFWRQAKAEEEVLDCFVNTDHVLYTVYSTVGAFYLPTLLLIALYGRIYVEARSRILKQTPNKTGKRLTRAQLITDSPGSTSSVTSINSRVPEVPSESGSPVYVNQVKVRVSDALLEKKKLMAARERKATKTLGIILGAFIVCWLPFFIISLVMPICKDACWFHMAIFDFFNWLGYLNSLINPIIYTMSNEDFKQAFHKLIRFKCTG

Compound	IC50 (Thromboxane-A synthase)	IC50 [1]	Ki [1]	IC50 [2]	IC50 [3]	IC50 [4]	IC50 [5]	IC50 ([1]; read-out: IC50)	Ki ([1]; read-out: Ki)	IC50 ([5]; read-out: IC50)	Ki ([5]; read-out: Ki)
COc1ccccc1OCC(O)COC(N)=O (stereo not drawn) [METHOCARBAMOL]	Not Active	Not Active	Not Active	Not Active	Not Active	Not Active	Not Active				
CO[C@@]1(NC(=O)CSCC#N)C(=O)N2C(C(=O)O)=C(CSc3nnnn3C)CS[C@@H]21 [CEFMETAZOLE]	Not Active	Not Active	Not Active	Not Active	Not Active	Not Active	Not Active				
C=C(CC)C(=O)c1ccc(OCC(=O)O)c(Cl)c1Cl [ETHACRYNIC ACID]	Not Active	Not Active	Not Active	Not Active	Not Active	Not Active	Not Active				
Oc1ccccc1O [CATECHOL]	Not Active	Not Active	Not Active	Not Active	Not Active	Not Active	Not Active				
CC(C)(CO)C(O)C(=O)NCCCO (stereo not drawn) [PANTHENOL]	Not Active	Not Active	Not Active	Not Active	Not Active	Not Active	Not Active				
NC(=O)N1c2ccccc2C=Cc2ccccc21 [CARBAMAZEPINE]	Not Active	Not Active	Not Active	Not Active	Not Active	Not Active	Not Active				
CN(Cc1cnc2nc(N)nc(N)c2n1)c1ccc(C(=O)N[C@@H](CCC(=O)O)C(=O)O)cc1 [METHOTREXATE]	Not Active	Not Active	Not Active	Not Active	Not Active	Not Active	Not Active				
O=P1(N(CCCl)CCCl)NCCCO1 (stereo not drawn) [CYCLOPHOSPHAMIDE ANHYDROUS]	Not Active	Not Active	Not Active	Not Active	Not Active	Not Active	Not Active				
C[C@]12CCC(=O)C=C1CC[C@@H]1[C@@H]2[C@@H](O)C[C@@]2(C)[C@H]1CC[C@]2(O)C(=O)CO [HYDROCORTISONE]	Not Active	Not Active	Not Active	Not Active	Not Active	Not Active	Not Active				
Cc1cccc(Nc2ccccc2C(=O)O)c1C [MEFENAMIC ACID]	Not Active	Not Active	Not Active	Not Active	Not Active	Not Active	Not Active				
CCn1cc(C(=O)O)c(=O)c2cc(F)c(N3CCNCC3)nc21 [ENOXACIN]	Not Active	Not Active	Not Active	Not Active	Not Active	Not Active	Not Active				
Cc1c(N(C)CS(=O)(=O)[O-])c(=O)n(-c2ccccc2)n1C.[Na+] [DIPYRONE SODIUM]	Not Active	Not Active	Not Active	Not Active		Not Active	Not Active				
C#C[C@]1(O)CC[C@H]2[C@@H]3CCC4=Cc5oncc5C[C@]4(C)[C@H]3CC[C@@]21C [DANAZOL]	Not Active			Not Active	Not Active	Not Active	Not Active	14.6 µM	14.2 µM		
CC(=O)O[C@]1(C(C)=O)CC[C@H]2[C@@H]3C=C(C)C4=CC(=O)CC[C@]4(C)[C@H]3CC[C@@]21C [MEGESTROL ACETATE]	Not Active	Not Active	Not Active	Not Active	Not Active	Not Active	Not Active				
CCOC(=O)n1ccn(C)c1=S [CARBIMAZOLE]	Not Active	Not Active	Not Active	Not Active	Not Active	Not Active	Not Active				
CN1C(=O)CN=C(c2ccccc2)c2cc(Cl)ccc21 [DIAZEPAM]	Not Active	Not Active	Not Active	Not Active	Not Active	Not Active	Not Active				
NC[C@H]1O[C@H](O[C@H]2[C@H](O)[C@@H](O[C@H]3O[C@H](CO)[C@@H](O)[C@H](N)[C@H]3O)[C@H](N)C[C@@H]2N)[C@H](O)[C@@H](O)[C@@H]1O [KANAMYCIN]	Not Active	Not Active	Not Active	Not Active	Not Active	Not Active	Not Active				
COc1cc(CNC(=O)CCCC/C=C/C(C)C)ccc1O [CAPSAICIN]	Not Active	Not Active	Not Active	Not Active	Not Active	Not Active	Not Active				
C[C@H](C(=O)O)c1cccc(C(=O)c2ccccc2)c1 [DEXKETOPROFEN]	Not Active	Not Active	Not Active	Not Active	Not Active	Not Active	Not Active				
NC[C@@H]1O[C@H](O[C@H]2[C@@H](O)[C@H](O[C@@H]3[C@@H](O)[C@H](N)C[C@H](N)[C@H]3O[C@H]3O[C@H](CN)[C@@H](O)[C@H](O)[C@H]3N)O[C@@H]2CO)[C@H](N)[C@@H](O)[C@@H]1O [FRAMYCETIN]	Not Active	Not Active	Not Active	Not Active	Not Active	Not Active	Not Active				
C[C@]12C/C(=C/O)C(=O)C[C@@H]1CC[C@@H]1[C@@H]2CC[C@@]2(C)[C@H]1CC[C@]2(C)O [OXYMETHOLONE]	Not Active	Not Active	Not Active	Not Active	Not Active	Not Active	Not Active				
C[C@@H]1CC[C@H]2[C@@H](C)C(=O)O[C@@H]3O[C@@]4(C)CC[C@@H]1[C@]32OO4 [ARTEMISININ]	Not Active	Not Active	Not Active	Not Active	Not Active	Not Active	Not Active				
CCOC(=O)[C@H](CCc1ccccc1)N[C@@H](C)C(=O)N1Cc2ccccc2C[C@H]1C(=O)O	Not Active	Not Active	Not Active	Not Active	Not Active	Not Active	Not Active				
C=C1/C(=C\C=C2/CCC[C@]3(C)[C@@H]([C@H](C)CCCC(C)C)CC[C@@H]23)C[C@@H](O)C[C@@H]1O [ALFACALCIDOL]	Not Active	Not Active	Not Active	Not Active	Not Active	Not Active	Not Active				
CN1C[C@H](C(=O)N[C@]2(C)O[C@@]3(O)[C@@H]4CCCN4C(=O)[C@H](Cc4ccccc4)N3C2=O)C[C@@H]2c3cccc4[nH]cc(c34)C[C@H]21 [DIHYDROERGOTAMINE]	Not Active			Not Active	Not Active	Not Active				0.000846 µM	0.000384 µM
Cc1cnc(C(=O)NCCc2ccc(S(=O)(=O)NC(=O)NC3CCCCC3)cc2)cn1 [GLIPIZIDE]	Not Active	Not Active	Not Active	Not Active			Not Active				
